We go through 13 compounds from ChEMBL document CHEMBL3997786, “Development of Dihydroxyphenyl Sulfonylisoindoline Derivatives as Liver-Targeting Pyruvate Dehydrogenase Kinase Inhibitors” (J Med Chem, 2017).

SMILES strings stand for the structures.

Series [1] addresses T1, [Pyruvate dehydrogenase (acetyl-transferring)] kinase isozyme 2, mitochondrial (Homo sapiens, UniProt Q15119). As to the kind of experiment: Inhibition of N-terminal His6-SUMO tagged recombinant human PDK2 using [32P]-gamma-ATP assessed as decrease in incorporation of radioactivity into E1 protein incubated for 2 mins.
In series [2] the target is T1, [Pyruvate dehydrogenase (acetyl-transferring)] kinase isozyme 2, mitochondrial. The experiment in a line: Binding affinity to N-terminal His6-SUMO tagged recombinant human PDK2 by isothermal titration calorimetry. For orientation: In ITC the heat of successive injections is recorded.
Series [3] concerns Plasma. As to the kind of experiment: Terminal half life in CD1 mouse plasma at 70 mg/kg, ip by LC-MS/MS analysis. Format: ADME, organism-based. The note with it: in vivo.
For series [4], the system named is Plasma. The experiment in a line: Cmax in CD1 mouse plasma at 70 mg/kg, ip by LC-MS/MS analysis. Format: ADME, organism-based. Set-up: dose 70 mg/kg, route intraperitoneal. The note with it: in vivo.
Series [5] has as its system Plasma. As to the kind of experiment: Tmax in CD1 mouse plasma at 70 mg/kg, ip by LC-MS/MS analysis. Format: ADME, organism-based. To be noted: in vivo.
For series [6], the system named is Plasma. As to the kind of experiment: AUClast in CD1 mouse plasma at 70 mg/kg, ip by LC-MS/MS analysis. Further details: dose 70 mg/kg, route intraperitoneal, time 0 - last. The note with it: in vivo. Format: ADME, organism-based.
The subject of series [7] is Plasma. As to the kind of experiment: Apparent volume of distribution during terminal phase in CD1 mouse plasma at 70 mg/kg, ip by LC-MS/MS analysis. Format: ADME, organism-based. To be noted: in vivo.
A short description of series [8]: Apparent clearance in CD1 mouse plasma at 70 mg/kg, ip by LC-MS/MS analysis. The class given is ADME, organism-based.
The subject of series [9] is Liver. As to the kind of experiment: Terminal half life in CD1 mouse liver at 70 mg/kg, ip by LC-MS/MS analysis. To be noted: in vivo. Format: ADME, organism-based.
The subject of series [10] is Liver. As to the kind of experiment: Cmax in CD1 mouse liver at 70 mg/kg, ip by LC-MS/MS analysis. The class given is ADME, organism-based. Set-up: dose 70 mg/kg, route intraperitoneal. The note with it: in vivo.
In series [11] the test system is Liver. The experiment in a line: Tmax in CD1 mouse liver at 70 mg/kg, ip by LC-MS/MS analysis. Format: ADME, organism-based. To be noted: in vivo.
For series [12], the system named is Liver. The experiment in a line: AUClast in CD1 mouse liver at 70 mg/kg, ip by LC-MS/MS analysis. To be noted: in vivo. The class given is ADME, organism-based.
Series [13] has as its system Liver. As to the kind of experiment: Apparent volume of distribution during terminal phase in CD1 mouse liver at 70 mg/kg, ip by LC-MS/MS analysis. The class given is ADME, organism-based. To be noted: in vivo.
In series [14] the test system is Liver. As to the kind of experiment: Apparent clearance in CD1 mouse liver at 70 mg/kg, ip by LC-MS/MS analysis. Format: ADME, organism-based. The note with it: in vivo.
Series [15] can be described thus: Terminal half life in CD1 mouse muscle at 70 mg/kg, ip by LC-MS/MS analysis. The class given is ADME, organism-based, Muscle tissue. To be noted: read-out: beta t1/2.
Series [16] is described as follows: Cmax in CD1 mouse muscle at 70 mg/kg, ip by LC-MS/MS analysis. Set-up: dose 70 mg/kg, route intraperitoneal. The class given is ADME, organism-based, Muscle tissue.
The nature of series [17]: Tmax in CD1 mouse muscle at 70 mg/kg, ip by LC-MS/MS analysis. The class given is ADME, organism-based, Muscle tissue.
Series [18] is described as follows: AUClast in CD1 mouse muscle at 70 mg/kg, ip by LC-MS/MS analysis. The class given is ADME, organism-based, Muscle tissue. The note with it: in vivo.
Series [19] can be described thus: Apparent volume of distribution during terminal phase in CD1 mouse muscle at 70 mg/kg, ip by LC-MS/MS analysis. The class given is ADME, organism-based, Muscle tissue. To be noted: in vivo.
Series [20] in a line: Apparent clearance in CD1 mouse muscle at 70 mg/kg, ip by LC-MS/MS analysis. The class given is ADME, organism-based, Muscle tissue. To be noted: in vivo.

Take `O=S(=O)(c1ccc(O)cc1O)N1Cc2ccc(NC3CCN(CC(O)CO)CC3)cc2C1` (stereo not drawn): in series [1], the IC50 was 154 nM.
Still for that read-out and setting: the figure for `NC(=O)C[C@H](N)C(=O)NCCNc1ccc2c(c1)CN(S(=O)(=O)c1ccc(O)cc1O)C2` is 357 nM; for `O=S(=O)(c1ccc(O)cc1O)N1Cc2ccc(O)cc2C1` it is 570 nM.
Still for that read-out and setting: the figure for `O=C(O)CC(=O)N1CCC(Nc2ccc3c(c2)CN(S(=O)(=O)c2ccc(O)cc2O)C3)CC1` is 1660 nM; for `Nc1ccc2c(c1)CN(S(=O)(=O)c1ccc(O)cc1O)C2` it is 1180 nM.
Still for that read-out and setting: the figure for `C[C@H](O)[C@H](N)C(=O)N1CCC(Nc2ccc3c(c2)CN(S(=O)(=O)c2ccc(O)cc2O)C3)CC1` is 91 nM; for `NC(=O)C[C@H](N)C(=O)N1CC(Nc2ccc3c(c2)CN(S(=O)(=O)c2ccc(O)cc2O)C3)C1` it is 65 nM; for `NC(=O)C[C@H](N)C(=O)N1CCCN(c2ccc3c(c2)CN(S(=O)(=O)c2ccc(O)cc2O)C3)CC1` it is 1510 nM.
`N[C@@H](CO)C(=O)N1CCC(Nc2ccc3c(c2)CN(S(=O)(=O)c2ccc(O)cc2O)C3)CC1`: in series [1], the IC50 worked out at 68 nM.
As for `O=S(=O)(c1ccc(O)cc1O)N1Cc2ccc(NC3CCNCC3)cc2C1`, the IC50 in [1] is 195 nM. Moreover, in series [2], the Kd is 110 nM.
On to `O=S(=O)(c1ccc(O)cc1O)N1Cc2cc(O)cc(O)c2C1`, for which the IC50 in series [1] is 456 nM. Also, the Kd in series [2] is 156 nM. For the same compound, the “beta t1/2” value in the series with Plasma [3] stood at 5.65 h; in the series with Liver [9], 1.67 h. For the same compound, the figures for the Cmax (in the series on Plasma [4]; in the series on Liver [10]; in series [16]) were 29000 ng/mL, 5707 ng/g and 17400 ng/g, respectively. In addition, the time of peak concentration (Tmax) with Plasma [5] is 0.167 h; in the series with Liver [11], 0.167 h; in [17] it was 0.5 h. In addition, the AUClast was determined as 1494106 ng·min/mL in the series with Plasma [6], 245088 ng·min/g with Liver [12] and 885986 ng·min/g in series [18]. Further, the Vz/F was 679 mL in the series with Plasma [7], 1174 g with Liver [13] and 1720 g in series [19]. In addition, the CL/F in series [8] was 1.39 mL/min; with Liver [14], 8.13 g/min; in series [20] it was 2.32 g/min. In series [15], the half-life is 8.57 h.
Regarding `NC(=O)C[C@H](N)C(=O)N1CC[C@@H](Nc2ccc3c(c2)CN(S(=O)(=O)c2ccc(O)cc2O)C3)C1`, the IC50 in series [1] came out at 221 nM.
The same measure, in the same setting: the figure for `O=C(O)c1ccccc1C(=O)N1CCC(Nc2ccc3c(c2)CN(S(=O)(=O)c2ccc(O)cc2O)C3)CC1` is 565 nM.

Usually IC50 stands for the concentration at which inhibition is half-maximal. The Kd is the constant that tells how readily two partners part at equilibrium. As a reminder, the Cmax is the highest concentration seen after dosing. In general, Tmax refers to the time at which the peak concentration occurs.
